Experimental data taken from patent US8192962B2, “Processes for detecting toxic substances” (Daikin Industries, Ltd., priority 2001, dated 2012).

Tested on: Unknown protein yeast genes
Experiment: DNA chip mRNA expression in yeast, unknown protein yeast genes (Table 1)
Type: cell-based, Saccharomyces cerevisiae S288C
Outline: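 In this screen, yeast in logarithmic growth are challenged for two hours with a toxic substance at a non-lethal inhibitory concentration. Their mRNA, converted to Cy3- or Cy5-labeled cDNA, hybridizes at 65° C. to a chip spanning every yeast gene, and expression is expressed as a ratio to untreated cells.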

C=CC=O [(14), acrolein]
The level of expressed mRNA in the presence of chemical substance/The level of expressed mRNA in the absence of chemical substance (yeast gene YAL053W, incubated two hours with chemical substance): 0.7 | The level of expressed mRNA in the presence of chemical substance/The level of expressed mRNA in the absence of chemical substance (yeast gene YBL048W): 2.0 | The level of expressed mRNA in the presence of chemical substance/The level of expressed mRNA in the absence of chemical substance (yeast gene YBL107C): 2.5 | The level of expressed mRNA in the presence of chemical substance/The level of expressed mRNA in the absence of chemical substance (yeast gene YDL072C, incubated two hours with chemical substance): 1.8 | The level of expressed mRNA in the presence of chemical substance/The level of expressed mRNA in the absence of chemical substance (yeast gene YDL204W, incubated two hours with chemical substance): 2.4 | The level of expressed mRNA in the presence of chemical substance/The level of expressed mRNA in the absence of chemical substance (yeast gene YDL222C, incubated two hours with chemical substance): 1.3 | The level of expressed mRNA in the presence of chemical substance/The level of expressed mRNA in the absence of chemical substance (yeast gene YDR330W, incubated two hours with chemical substance): 1.1 | The level of expressed mRNA in the presence of chemical substance/The level of expressed mRNA in the absence of chemical substance (yeast gene YDR411C, incubated two hours with chemical substance): 0.8 | The level of expressed mRNA in the presence of chemical substance/The level of expressed mRNA in the absence of chemical substance (yeast gene YDR511W, incubated two hours with chemical substance): 2.2 | The level of expressed mRNA in the presence of chemical substance/The level of expressed mRNA in the absence of chemical substance (yeast gene YDR545W, incubated two hours with chemical substance): 0.7 | The level of expressed mRNA in the presence of chemical substance/The level of expressed mRNA in the absence of chemical substance (yeast gene YEL001C, incubated two hours with chemical substance): 1.3 | The level of expressed mRNA in the presence of chemical substance/The level of expressed mRNA in the absence of chemical substance (yeast gene YER004W, incubated two hours with chemical substance): 1.8 | The level of expressed mRNA in the presence of chemical substance/The level of expressed mRNA in the absence of chemical substance (yeast gene YER035W, incubated two hours with chemical substance): 1.0 | The level of expressed mRNA in the presence of chemical substance/The level of expressed mRNA in the absence of chemical substance (yeast gene YER079W, incubated two hours with chemical substance): 1.6 | The level of expressed mRNA in the presence of chemical substance/The level of expressed mRNA in the absence of chemical substance (yeast gene YER106W, incubated two hours with chemical substance): 1.5 | The level of expressed mRNA in the presence of chemical substance/The level of expressed mRNA in the absence of chemical substance (yeast gene YER158C, incubated two hours with chemical substance): 0.9 | The level of expressed mRNA in the presence of chemical substance/The level of expressed mRNA in the absence of chemical substance (yeast gene YER163C, incubated two hours with chemical substance): 1.9 | The level of expressed mRNA in the presence of chemical substance/The level of expressed mRNA in the absence of chemical substance (yeast gene YER175C, incubated two hours with chemical substance): 1.1 | The level of expressed mRNA in the presence of chemical substance/The level of expressed mRNA in the absence of chemical substance (yeast gene YFL006W, incubated two hours with chemical substance): 1.7 | The level of expressed mRNA in the presence of chemical substance/The level of expressed mRNA in the absence of chemical substance (yeast gene YFL010C, incubated two hours with chemical substance): 1.4 | The level of expressed mRNA in the presence of chemical substance/The level of expressed mRNA in the absence of chemical substance (yeast gene YFL024C): 3.3 | The level of expressed mRNA in the presence of chemical substance/The level of expressed mRNA in the absence of chemical substance (yeast gene YFL032W, incubated two hours with chemical substance): 0.6 | The level of expressed mRNA in the presence of chemical substance/The level of expressed mRNA in the absence of chemical substance (yeast gene YGL037C, incubated two hours with chemical substance): 1.0 | The level of expressed mRNA in the presence of chemical substance/The level of expressed mRNA in the absence of chemical substance (yeast gene YGL047W, incubated two hours with chemical substance): 2.3 | The level of expressed mRNA in the presence of chemical substance/The level of expressed mRNA in the absence of chemical substance (yeast gene YGL053W, incubated two hours with chemical substance): 1.1 | The level of expressed mRNA in the presence of chemical substance/The level of expressed mRNA in the absence of chemical substance (yeast gene YGL121C): 5.8 | The level of expressed mRNA in the presence of chemical substance/The level of expressed mRNA in the absence of chemical substance (yeast gene YGL199C, incubated two hours with chemical substance): 0.8 | The level of expressed mRNA in the presence of chemical substance/The level of expressed mRNA in the absence of chemical substance (yeast gene YGR101W, incubated two hours with chemical substance): 0.9 | The level of expressed mRNA in the presence of chemical substance/The level of expressed mRNA in the absence of chemical substance (yeast gene YGR110W): 2.8 | The level of expressed mRNA in the presence of chemical substance/The level of expressed mRNA in the absence of chemical substance (yeast gene YGR130C, incubated two hours with chemical substance): 0.9 | The level of expressed mRNA in the presence of chemical substance/The level of expressed mRNA in the absence of chemical substance (yeast gene YGR154C, incubated two hours with chemical substance): 2.2 | The level of expressed mRNA in the presence of chemical substance/The level of expressed mRNA in the absence of chemical substance (yeast gene YGR221C, incubated two hours with chemical substance): 1.4 | The level of expressed mRNA in the presence of chemical substance/The level of expressed mRNA in the absence of chemical substance (yeast gene YHR138C, incubated two hours with chemical substance): 3.4 | The level of expressed mRNA in the presence of chemical substance/The level of expressed mRNA in the absence of chemical substance (yeast gene YHR199C, incubated two hours with chemical substance): 2.0 | The level of expressed mRNA in the presence of chemical substance/The level of expressed mRNA in the absence of chemical substance (yeast gene YIL023C, incubated two hours with chemical substance): 0.7 | The level of expressed mRNA in the presence of chemical substance/The level of expressed mRNA in the absence of chemical substance (yeast gene YIL041W, incubated two hours with chemical substance): 1.3 | The level of expressed mRNA in the presence of chemical substance/The level of expressed mRNA in the absence of chemical substance (yeast gene YIL087C, incubated two hours with chemical substance): 1.3 | The level of expressed mRNA in the presence of chemical substance/The level of expressed mRNA in the absence of chemical substance (yeast gene YJL057C, incubated two hours with chemical substance): 1.6 | The level of expressed mRNA in the presence of chemical substance/The level of expressed mRNA in the absence of chemical substance (yeast gene YJL066C, incubated two hours with chemical substance): 1.0 | The level of expressed mRNA in the presence of chemical substance/The level of expressed mRNA in the absence of chemical substance (yeast gene YJL082W, incubated two hours with chemical substance): 0.5 | The level of expressed mRNA in the presence of chemical substance/The level of expressed mRNA in the absence of chemical substance (yeast gene YJL151C, incubated two hours with chemical substance): 1.3 | The level of expressed mRNA in the presence of chemical substance/The level of expressed mRNA in the absence of chemical substance (yeast gene YJL152W, incubated two hours with chemical substance): 1.4 | The level of expressed mRNA in the presence of chemical substance/The level of expressed mRNA in the absence of chemical substance (yeast gene YJL161W, incubated two hours with chemical substance): 2.2 | The level of expressed mRNA in the presence of chemical substance/The level of expressed mRNA in the absence of chemical substance (yeast gene YJL171C, incubated two hours with chemical substance): 1.0 | The level of expressed mRNA in the presence of chemical substance/The level of expressed mRNA in the absence of chemical substance (yeast gene YJR008W, incubated two hours with chemical substance): 1.2 | The level of expressed mRNA in the presence of chemical substance/The level of expressed mRNA in the absence of chemical substance (yeast gene YJR054W, incubated two hours with chemical substance): 1.2 | The level of expressed mRNA in the presence of chemical substance/The level of expressed mRNA in the absence of chemical substance (yeast gene YKL071W): 21.9 | The level of expressed mRNA in the presence of chemical substance/The level of expressed mRNA in the absence of chemical substance (yeast gene YKL086W, incubated two hours with chemical substance): 2.9 | The level of expressed mRNA in the presence of chemical substance/The level of expressed mRNA in the absence of chemical substance (yeast gene YKL107W): 3.4 | The level of expressed mRNA in the presence of chemical substance/The level of expressed mRNA in the absence of chemical substance (yeast gene YKL151C, incubated two hours with chemical substance): 1.3 | The level of expressed mRNA in the presence of chemical substance/The level of expressed mRNA in the absence of chemical substance (yeast gene YKL153W, incubated two hours with chemical substance): 1.1
